Columns and labels:
[1] = system: 80:20 (molar ratio) DMPG and DMPC membrane on biotin containing porous beads; assay: Microfluidic study: detection of membrane interaction by release of reagent (biotin, ostrich quenching-unquenching); type: biochemical; details: 20 μL of melittin (220 μM), flow ~1.2 μL/min
Description: A microchannel was packed with a segment (about 1 mm) of streptavidin coated beads to which a non saturating amount of fluorescein biotin had been bound. This was followed by a segment (about 1 mm) of blank silica beads and a segment (about 2 mm) of lipid coated porous beads containing biotin. The blank silica beads were served as the spacer to prevent mixing of fluorescein biotin beads with biotin encapsulated beads. Biotin (25 mM) was encapsulated (according to the same procedure for fluorescein) with a 80:20 (molar ratio) mixture of DMPG and DMPC. A […] aliquot of either 10% Triton X-100® detergent or 220 μM melittin was injected to the column. The fluorescein biotin bead segment was irradiated at 488 nm and its fluorescence emission intensity was measured at 520 nm every 10 minutes.
In this study the membrane-toxin interaction was investigated using the microcolumn system by monitoring a bimolecular reaction on downstream beads. […] The unquenching of fluorescence was the signal for the disruption. […] Introduction of free biotin displaced the fluorescein from the cis binding pocket thus unquenching the fluorescence signal. […]
20 μL of melittin (220 μM) was injected to the bead packed microchannel at 18 min. […] The initial fluorescence intensity decrease is again due to photobleaching, resulting from exposure of the fluorescein-biotin segment to the Ar ion laser. […]

lipid bilayer = assay: Superquenching of fluorescent polymer coated lipid bilayer beads (general statement); type: biochemical; details: streptolysin O with cholesterol-containing lipids, mellitin with anionic lipids
From the text: On the other hand, some test agents may only lead to gaps or smaller interruptions of the lipid bilayer, for example, as a result of insertion of a channel- or pore-forming proteins such as gramicidin and hemolysin. In either case, the result is either complete or partial superquenching of the fluorescent polymer. In general, non-porous beads are used for such quenching assays because the quenchable polymer is preferably coated onto the beads and is not impregnated into the beads.

[2] = system: 80:20 (molar ratio) DMPG and DMPC lipid bilayers on porous silica beads; assay: Suspension study: melittin-induced release of fluorescein dye from DMPG/DMPC coated porous beads; type: biochemical; details: 220 μM melittin, 25° C., 80:20 DMPG:DMPC
Description: Experimental procedures were similar to the Triton X-100® detergent based analysis. For experiments with α-toxin, three different toxin concentrations: 15, 45 and 250 μg/mL were used at 37° C. and 25° C. Beads coated with EPC were used. In the experiments with melittin, 220 μM melittin was used with beads coated with either 100% EPC, 10:90 (molar ratio) mixture of DMPG and EPC or an 80:20 mixture of DMPG and DMPC. All melittin experiments were conducted at 25° C.
Previous suspension studies on disruption of lipid bilayers have been performed with small unilamellar vesicles where disruption of the lipid bilayer membranes was detected by monitoring the unquenching of a highly concentrated, encapsulated dye. In the present work disruption was monitored via release of fluorescein dye from porous beads, by measuring the increase in fluorescence intensity of the supernatant at 520 nm. Beads were first suspended in Tris buffer containing the disruptor. […] The measured portion was added back to the bead sample to permit continuous monitoring. […]
In view of the results shown in FIG. 5, the effects of melittin on other mixtures of lipids were examined. […] The increase in fluorescence intensity due to the membrane-melittin interaction, which results in the release of dye from porous beads was about 10 fold. […]

[3] = system: DMPG bilayer on PPE-coated beads; assay: Microfluidic assay: detection of lipid bilayer disruption by fluorescence superquenching; type: biochemical; details: injected as 1:1 mixture with 120 μM AQS
Description: The preparation of microcolumns with PPE-coated, silica beads was similar to that of with fluorescein containing beads. A 10 μL aliquot of 120 μM AQS was injected to the column. After a certain period of time, a 10 μL aliquot of 1:1 mixture of 120 μM AQS and 220 μM melittin was injected. During this process, the PPE-coated silica bead segment was irradiated at 488 nm and its fluorescence emission intensity was measured at 520 nm every 10 minutes. This experiment was repeated, while injecting 220 μM melittin first, and then 120 μM AQS.
The feasibility of using superquenching as a method of detecting membrane-toxin interactions in microcolumns was also investigated. The fluorescence intensity of the cationic polyelectrolyte poly(p-phenylene-ethynylene) polymer (PPE) can be super-quenched by the quencher 9,10-anthraquinone-2,6-disulfonic acid (AQS). […] It has been observed in flow cytometric studies that formation of DMPG membranes on PPE-coated beads will quench the PPE fluorescence to some extent. The initial rise in fluorescence intensity was probably due to the unquenching of the PPE, due to the removal of lipid bilayers from PPE-coated beads through melittin interaction, whereas the decrease in fluorescence corresponded to superquenching of PPE by AQS after disruption of DMPG bilayer by melittin. […]

[4] = system: immobilized anionic DMPG membranes; details: surface plasmon resonance; cited from earlier work
DMPG supported on MS-PPE = assay: Binding curves of MLT to DMPG supported on MS-PPE (superquenching flow cytometric assay); details: flow cytometry, 10 μM AQS
Description: FIGS. 18A-B show binding curves for MLT-disruption of supported lipid bilayer by natural MLT (nMLT; FIG. 18A), and synthetic MLT (sMLT; FIG. 18B). Fluorescence intensity was normalized to that without MLT as determined by flow cytometry. The error bars represent the standard deviation (SD) of the means of normalized histograms obtained for 3 replicates.
(§1) Bead suspensions of 2.5×10^5 DMPG-coated MS-PPE in 200 μL of PBS were analyzed using a FACScan flow cytometer (Becton-Dickinson, Sunnyvale, Calif.) with excitation at 488 nm. Fluorescence signals were acquired on FL-1 channel (525 nm) using log amplification and analyzed with the CellQuest software. Kinetic analysis of disruption of supported lipid bilayer by melittin was performed by acquiring real-time data with continuous mixing of samples (10^6 MS-PPE in 800 μl of PBS) using a magnetic stirrer. The raw data were analyzed using IDL Query software developed by Bruce Edwards (Cancer Center, University of New Mexico, Albuquerque, N. Mex.).
From FIG. 18, the association constant (corresponding to the reciprocal of the point of half saturation) for nMLT and sMLT with DMPG were 5×10^6 M^−1 and 1.7×10^6 M^−1, respectively. […] Lower concentrations of nMLT, in comparison to sMLT, were required to disrupt the DMPG lipid bilayer. This might be attributed to the fact that nMLT contains some phospholipase A2 (PLA2) as a contaminant. […]

[5] = system: DMPG lipid bilayer on MS-PPE; assay: Disruption of DMPG lipid bilayer on MS-PPE detected by superquenching with AQS, flow cytometry; type: biochemical
Description: Lipid bilayers were disrupted by adding Triton X-100® detergent to the bead suspension to a final concentration of 0.25% (w/v).
Bead suspensions of 2.5×10^5 PPE-coated microspheres in 200 μL PBS were analyzed using a FACScan flow cytometer (Becton-Dickinson, Sunnyvale, Calif.) with excitation at 488 nm. Fluorescence signals were acquired on the FL-1 channel (525 nm) using log amplification and analyzed with the CellQuest software.
as §1
Because an anionic lipid was used to form a lipid bilayer around MS-PPE, it was expected that MLT will disrupt the DMPG lipid bilayer by such a detergent-like action. This was tested by adding 10 μM AQS to DMPG-coated MS-PPE followed by treatment with one of the following: Triton X-100® detergent, synthetic MLT (sMLT), or natural MLT (nMLT) and immediately reading the fluorescence by flow cytometry. […] These histograms resemble the ones reported previously for MS-PPE, without a lipid coating, in absence and in presence of AQS.
The kinetics of disruption of supported lipid bilayer by MLT were monitored by measuring real-time changes in fluorescence intensity by flow cytometry (FIG. 19). Suspensions of 10^6 DMPG-coated MS-PPE in 800 μL of PBS were treated with AQS at a final concentration of 10 μM, then with either sMLT, Triton X-100® detergent, or no treatment. […] Treatment with sMLT in the absence of AQS led to an increase in normalized fluorescence (FIG. 19, trace A). This can be attributed to disruption of the lipid bilayer by sMLT, and is consistent with a reversal of the slight quenching of fluorescence caused by the formation of a DMPG lipid bilayer over MS-PPE. Addition of AQS alone to DMPG-coated MS-PPE (FIG. 19, trace C) led to a 20% reduction in fluorescence as reported earlier. Addition of Triton X-100® detergent to DMPG-coated MS-PPE after the addition of AQS (first dip in trace E, FIG. 19) caused immediate decrease in fluorescence to ˜10% of its original value (second dip in trace E, FIG. 19). In contrast, addition of sMLT, after the addition of AQS, (FIG. 19, trace D) led to a gradual reduction of fluorescence intensity to ˜20% of the original value. Although MLT forms dimers at high concentrations (Dempsey, C. E. Biochim. Biophys. Acta 1990, 1031, 143-161), it is monomeric at the concentrations used in this study. On the other hand, Triton X-100® detergent forms micelles at the concentration used in this study.

| Molecule | increase in fluorescence intensity of fluorescein-biotin segment [1] | effect on the lipid bilayer (lipid bilayer) | increase in fluorescence intensity due to the membrane-melittin interaction [2] | change in fluorescence intensity of bead segment [3] | association constant [4] | association constant (reciprocal of the point of half saturation) with DMPG (DMPG supported on MS-PPE) | quenching of the MS-PPE after treatment ([5]; 10 μM AQS, sMLT 3.8 μM, nMLT 1.6 μM) | fluorescence intensity, of the original value ([5]; real-time kinetics, added after 10 μM AQS (traces D, E)) |
| --- | --- | --- | --- | --- | --- | --- | --- | --- |
| CC[C@H](C)[C@H](NC(=O)CN)C(=O)NCC(=O)N[C@@H](C)C(=O)N[C@H](C(=O)N[C@@H](CC(C)C)C(=O)N[C@@H](CCCCN)C(=O)N[C@H](C(=O)N[C@@H](CC(C)C)C(=O)N[C@H](C(=O)N[C@H](C(=O)NCC(=O)N[C@@H](CC(C)C)C(=O)N1CCC[C@H]1C(=O)N[C@@H](C)C(=O)N[C@@H](CC(C)C)C(=O)N[C@H](C(=O)N[C@@H](CO)C(=O)N[C@@H](Cc1c[nH]c2ccccc12)C(=O)N[C@H](C(=O)N[C@@H](CCCCN)C(=O)N[C@@H](CCCNC(=N)N)C(=O)N[C@@H](CCCCN)C(=O)N[C@@H](CCCNC(=N)N)C(=O)N[C@@H](CCC(N)=O)C(=O)N[C@@H](CCC(N)=O)C(N)=O)[C@@H](C)CC)[C@@H](C)CC)[C@@H](C)O)[C@@H](C)O)C(C)C)C(C)C [melittin] | not as high as that observed for Triton X-100 | total disruption of the bilayer | about 10 fold | slight rise in fluorescence intensity followed by a significant decrease |  |  |  |  |
| sMLT: synthetic melittin obtained from Sigma |  |  |  |  | 2e+06 M⁻¹ | 1.7e+06 M⁻¹ | comparable to that occurring on addition of Triton X-100 | ~20% |

From patent US8334107B2, “Detection systems utilizing supported lipid bilayers” (priority 2005, dated 2012)
